In this test the test system is Paracoccus sp. strain TSN18E7. The test is described as follows: Evaluation of growth ability against metabolic analogue β-ionone (colony formation on plate culture medium). The format is cell-based. The following applies: plate culture medium of Table 2 with β-ionone in DMSO at final 0.01, 1, 2, 5 and 10 mM; 5 days at 25° C.; colonies visually counted. On the procedure: bacterium Paracoccus sp. strain TSN18E7 was inoculated in 5 mL of liquid medium shown in Table 1, and cultured for one (1) day at 25° C. under shaking and 150 rpm. The culture solution was diluted in a culture medium shown in Table 1, and spread on a plate culture medium having a composition shown in Table 2 supplemented with β-ionone (Aldrich) dissolved in dimethylsulfoxide (DMSO). β-ionone was supplemented at final concentrations of 0.01, 1, 2, 5 and 10 mM. Then the plate culture medium on which strain TSN18E7 was spread was cultured for 5 days at 25° C. Appearing colonies were visually counted and evaluated for growth ability of strain TSN18E7 for each concentration of β-ionone. The strain TSN18E7 inhibited growth in the presence of β-ionone of 1 mM or more, and formation of colony was not observed. We concluded that for separation of β-ionone resistant strain, suitable β-ionone concentration in culture is 1 mM in final concentration.

For `CC(=O)/C=C/C1=C(C)CCCC1(C)C` [β-ionone], the “β-ionone concentration at which growth of the strain is inhibited and formation of colony is not observed” value is on record as at least 1 mM.

(Values after patent US8221997B2, “Microorganism and method for producing carotenoid using the same” (Tosoh Corporation, priority 2005, dated 2012).)
